# Measurements from US20050186659A1, “Methods for protein purification” (priority 2004, published 2005).
# Values joined by “and” are separate entries in the source; they are usually repeats but may differ in a detail not shown here. Identical values can stand only once.
# Assays:
# 11β-HSD1 [1] = target: T1, 11β-HSD1 (Homo sapiens, UniProt P28845); test: Ki values for 11β-HSD1 (stated, no method given); type: biochemical; settings: range in words only
# Target sequence in this assay (P28845 24-292): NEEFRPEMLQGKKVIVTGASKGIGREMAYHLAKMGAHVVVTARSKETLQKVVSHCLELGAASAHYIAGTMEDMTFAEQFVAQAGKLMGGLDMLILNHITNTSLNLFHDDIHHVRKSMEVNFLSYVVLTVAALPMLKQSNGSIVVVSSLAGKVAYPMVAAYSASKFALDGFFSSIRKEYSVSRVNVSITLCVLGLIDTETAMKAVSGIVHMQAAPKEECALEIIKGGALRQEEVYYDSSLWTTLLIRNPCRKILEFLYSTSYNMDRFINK
# guinea pig 11β-HSD1 = target: T2, guinea pig 11β-HSD1 (Cavia porcellus, UniProt Q6QLL4); test: GuHCl-induced inactivation (conformational stability) monitored by cortisol dehydrogenation activity; type: biochemical; settings: guinea pig enzyme, control (no addition) 0.51
# T2 construct: the first 23 amino acid residues (19 for the rat variant) of the protein, which includes the distal N-terminus and the transmembrane domain, were omitted; His6 (N); made in house; host or cells: E. coli BL21(DE3), pET28a derivative, fermentor culture
# Experimental: (§1) Stability measurements. The conformational stability was examined by monitoring GuHCl-induced solvent inactivation of 11β-HSD1. Protein solutions (5-10 μM) were incubated overnight at room temperature in various concentrations of GuHCl (0-2 M) buffered with 50 mM Tris-HCl, pH 8.0. The inactivation of the enzyme was monitored by the decrease in dehydrogenase activity (25 μM cortisol, 50 μM NADP^+) using the fluorimetric assay described above. The stability data were analyzed by nonlinear regression, fitting to the equation described by Santoro and Bolen (24) using the program GraFit, version 5.0 (Erithacus Software, Staines, UK). The midpoint concentration of inactivation, Cm, was determined from the ratio, ΔG^H2O/m, of the fitted parameters.
# 11β-HSD1 [2] = target: T1, 11β-HSD1; test: Yield of soluble recombinant 11β-HSD1 expressed in E. coli BL21(DE3), SDS-PAGE of cleared lysate; parameters: the first 23 amino acid residues (19 for the rat variant) of the protein, which includes the distal N-terminus and the transmembrane domain, were omitted; made in house; host or cells: E. coli BL21(DE3), pET28a derivative, co-expression of GroEL/ES; settings: GroEL/ES co-overexpression in combination with inhibitor in growth medium; estimated by SDS-PAGE
# Description: FIGS. 1A and 1B depict expression of soluble 11β-HSD1 as analyzed by SDS-PAGE. Cleared lysates from induced cultures of BL21(DE3) containing pET28a derivatives for expression of human (FIG. 1A) and rat (FIG. 1B) 11β-HSD1. Lane 1, SeeBlue Plus2 pre-stained protein standard. lane 2, overexpression of 11β-HSD1; lane 3, co-overexpression of 11β-HSD1 and GroEL/ES; lane 4, overexpression of 11β-HSD1 in presence of the inhibitor BVT.24829; lane 5, co-overexpression of 11β-HSD1 and GroEL/ES in presence of BVT.24829.
# Two different strategies were employed to optimize production of soluble 11β-HSD1. For expression of the human and rat variant, the cells were grown in shake flasks using Terrific Broth medium supplemented with 50 μg/ml kanamycin and 34 μg/ml chloramphenicol. To increase the yield of soluble human and rat 11β-HSD1, the BL21(DE3) cells were co-transformed with the plasmid pBV530, harboring the genes for the E. coli chaperonin GroEL/ES under control of the araBAD promoter. The cells were then grown at 25° C. to a cell density corresponding to an A600 value of 0.5-1.0. To induce expression of GroEL/ES, arabinose was added to a final concentration of 0.05%. 45-60 minutes after induction of the chaperonin, 0.2 mM isopropyl-β-D-thiogalactoside (IPTG) was added to initiate production of 11β-HSD1. […]
# Target sequence in this assay (P28845 with tags, fused parts or gaps): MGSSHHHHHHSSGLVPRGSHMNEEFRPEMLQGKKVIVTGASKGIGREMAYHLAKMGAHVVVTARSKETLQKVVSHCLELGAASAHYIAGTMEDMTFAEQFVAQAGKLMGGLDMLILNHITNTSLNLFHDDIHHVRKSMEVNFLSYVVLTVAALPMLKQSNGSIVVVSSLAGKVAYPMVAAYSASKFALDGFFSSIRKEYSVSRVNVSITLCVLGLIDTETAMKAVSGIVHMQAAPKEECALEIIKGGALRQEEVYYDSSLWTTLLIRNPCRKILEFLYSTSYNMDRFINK
# 11β-HSD1 [3] = target: T1, 11β-HSD1; test: GuHCl-induced inactivation (conformational stability) monitored by cortisol dehydrogenation activity; type: biochemical; parameters: the first 23 amino acid residues (19 for the rat variant) of the protein, which includes the distal N-terminus and the transmembrane domain, were omitted; made in house; host or cells: E. coli BL21(DE3), pET28a derivative, co-expression of GroEL/ES; settings: human enzyme, control (no addition) 0.25
# Experimental: FIG. 4 is a graph depicting inactivation of recombinant human 11β-HSD1-catalyzed cortisol dehydrogenation with GuHCl. Protein concentration was approximately 5 μM in 50 mM Tris-HCl, pH 8.0. Solutions were exposed to denaturant, and protected by additives as indicated, for 16-18 h at 4° C. (∘) no additives; (□) 50 μM NADP^+; (□) BVT.24829 inhibitor and 50 μM NADP^+.
# as §1
# Target sequence in this assay (P28845 with tags, fused parts or gaps): as above
# 11β-HSD1 [4] = target: T1, 11β-HSD1; test: Active site titration, cortisol dehydrogenation by 11β-HSD1 with increasing inhibitor; type: biochemical; parameters: the first 23 amino acid residues (19 for the rat variant) of the protein, which includes the distal N-terminus and the transmembrane domain, were omitted; made in house; host or cells: E. coli BL21(DE3), pET28a derivative, co-expression of GroEL/ES; settings: dehydrogenase reaction, 50 μM cortisol, 100 μM NADP+; fitted to Morrison equation; read-out: Ki^app
# Experimental: FIG. 3 is a graph depicting active site titration of highly purified, homogenous human 11β-HSD1. Fractional velocities (vi/v0) of cortisol dehydrogenation by 11β-HSD1 were determined in presence of increasing amounts of the selective and potent inhibitor BVT.24829. […] Total protein concentration was determined by amino acid analysis (triplicate measurements) assuming a molecular mass of 31.9 kDa for the His-tagged enzyme.
# Enzyme activity measurements. The dehydrogenase activity of 11β-HSD1 was assayed at 25° C. in 50 mM Tris/Cl, pH 7.4, using 50 μM cortisol and 100 μM NADP^+, with a K2 spectrofluorimeter (ISS, Champaign, Ill.). The excitation and emission wavelengths were 340 nm and 460 nm, respectively. To ensure unambiguous initial rate measurements, the enzyme addition was adjusted to give a linear fluorescence increase for at least the first 2 min of reaction. Reaction rates were calculated before and after the addition of purified 11β-HSD1 to give enzymatic rates of NADP^+ reduction. The relationship between the increase of fluorescence and the rate of NADP^+ reduction was established by generating a calibration curve using freshly prepared solutions of NADPH (0-25 μM). […] Substrate and product were monitored by UV absorbance at 240 nm and concentrations were calculated by referral to corresponding calibration curves. […]
# Target sequence in this assay (P28845 with tags, fused parts or gaps): as above
# T2 sequence (Q6QLL4 with tags, fused parts or gaps): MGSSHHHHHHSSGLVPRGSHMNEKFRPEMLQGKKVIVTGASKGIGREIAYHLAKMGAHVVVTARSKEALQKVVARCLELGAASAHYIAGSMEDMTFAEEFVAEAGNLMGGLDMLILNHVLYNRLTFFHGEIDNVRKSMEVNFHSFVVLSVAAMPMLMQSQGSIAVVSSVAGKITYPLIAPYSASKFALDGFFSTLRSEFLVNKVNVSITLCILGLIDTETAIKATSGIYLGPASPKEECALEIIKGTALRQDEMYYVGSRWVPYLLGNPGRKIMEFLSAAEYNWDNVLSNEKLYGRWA
SMILES,Ki values for 11β-HSD1 (11β-HSD1 [1]),"midpoint concentration, Cm, for GuHCl-induced inactivation (guinea pig 11β-HSD1; 25 μM inhibitor + cofactor 50 μM NADP+)","midpoint concentration, Cm, for GuHCl-induced inactivation (guinea pig 11β-HSD1; 25 μM inhibitor added) [M]",improvement of yield of soluble human 11β-HSD1 (11β-HSD1 [2]),"midpoint concentration, Cm, for GuHCl-induced inactivation (11β-HSD1 [3]; inhibitor + cofactor 50 μM NADP+)","midpoint concentration, Cm, for GuHCl-induced inactivation (11β-HSD1 [3]; one equivalent of inhibitor added) [M]",Ki (11β-HSD1 [4]) [nM]
"Cc1c(Cl)cccc1S(=O)(=O)Nc1nc(CCN2CCOCC2=O)cs1 [BVT.3498, 3-chloro-2-methyl-N-{4-[2-(3-oxo-4-morpholinyl)ethyl]-1,3-thiazol-2-yl}benzenesulfonamide]",nanomolar range,–,–,–,–,–,–
"Cc1c(Cl)cccc1S(=O)(=O)Nc1nc(CC(=O)N2CCN(C)CC2)cs1 [BVT.2733, 3-Chloro-2-methyl-N-{4-[2-(4-methyl-1-piperazinyl)-2-oxoethyl]-1,3-thiazol-2-yl}benzenesulfonamide]",micromolar range,–,–,–,–,–,–
"CCCc1ccc(S(=O)(=O)Nc2ccsc2C(=O)N(CC)CC)cc1 [BVT.4584, N,N-diethyl-(3-{[(4-propylphenyl)sulfonyl]amino}thien-2-yl)carboxamide]",micromolar range,1.0 M and 0.98 M,0.75,–,–,–,–
"Cc1sc(NS(=O)(=O)c2cccc(Cl)c2C)nc1CCN1CCOCC1=O [BVT.24829, 3-chloro-2-methyl-N-{5-methyl-4-[2-(3-oxo-4-morpholinyl)ethyl]-1,3-thiazol-2-yl}benzenesulfonamide]",nanomolar range,–,–,approximately 60 fold,0.7 M and 0.71 M,0.51,32 ± 1
